Source: PubChem BioAssay (NCI)
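Method: 48-hour compound exposure of cells in 96-well plates, five concentrations, linear interpolation of endpoints. The concentration for 50% growth inhibition is given as GI50. TGI denotes the concentration required for complete inhibition of growth.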

What was measured:
Assay in all cases: growth of human tumour cells (NCI), 48 h
RXF 393 renal = system: RXF 393 renal
BT-549 breast = system: BT-549 breast
UACC-257 melanoma = system: UACC-257 melanoma
CCRF-CEM leukemia = system: CCRF-CEM leukemia
SK-MEL-5 melanoma = system: SK-MEL-5 melanoma
IGROV1 ovarian = system: IGROV1 ovarian
KM12 colon = system: KM12 colon
MDA-MB-231 breast = system: MDA-MB-231 breast
SK-MEL-2 melanoma = system: SK-MEL-2 melanoma
OVCAR-8 ovarian = system: OVCAR-8 ovarian
A549 NSCLC = system: A549 NSCLC
TK-10 renal = system: TK-10 renal
SF-295 CNS = system: SF-295 CNS
NCI-H522 lung = system: NCI-H522 lung
K-562 leukemia = system: K-562 leukemia
HL-60(TB) leukemia = system: HL-60(TB) leukemia
OVCAR-5 ovarian = system: OVCAR-5 ovarian
SK-OV-3 ovarian = system: SK-OV-3 ovarian
OVCAR-4 ovarian = system: OVCAR-4 ovarian
NCI/ADR-RES ovarian = system: NCI/ADR-RES ovarian
EKVX NSCLC = system: EKVX NSCLC
U251 CNS = system: U251 CNS
A498 renal = system: A498 renal
SF-539 CNS = system: SF-539 CNS
NCI-H460 lung = system: NCI-H460 lung
HOP-62 NSCLC = system: HOP-62 NSCLC
CAKI-1 renal = system: CAKI-1 renal
OVCAR-3 ovarian = system: OVCAR-3 ovarian
SK-MEL-28 melanoma = system: SK-MEL-28 melanoma
MOLT-4 leukemia = system: MOLT-4 leukemia
SR leukemia = system: SR leukemia
HT29 colon = system: HT29 colon
MDA-MB-435 = system: MDA-MB-435
SN12C renal = system: SN12C renal
UACC-62 melanoma = system: UACC-62 melanoma
T-47D breast = system: T-47D breast
MCF7 breast = system: MCF7 breast
SNB-19 CNS = system: SNB-19 CNS
HCT-15 colon = system: HCT-15 colon
UO-31 renal = system: UO-31 renal
PC-3 prostate = system: PC-3 prostate
HS 578T breast = system: HS 578T breast
MALME-3M melanoma = system: MALME-3M melanoma
786-0 renal = system: 786-0 renal
RPMI-8226 leukemia = system: RPMI-8226 leukemia
LOX IMVI melanoma = system: LOX IMVI melanoma
M14 melanoma = system: M14 melanoma
HCC-2998 colon = system: HCC-2998 colon
HCT-116 colon = system: HCT-116 colon
ACHN renal = system: ACHN renal
DU-145 prostate = system: DU-145 prostate
HOP-92 NSCLC = system: HOP-92 NSCLC

`COc1ccc(-c2nc3cc(Cl)c(Cl)cc3n2CC(=O)N=Nc2c(O)[nH]c3ccc(Cl)cc23)cc1` gave a GI50 (RXF 393 renal) of 1720 nM, a TGI (RXF 393 renal) of 3170 nM and a GI50 (BT-549 breast) of 2510 nM. It also gave a TGI (BT-549 breast) of 6440 nM, a GI50 (UACC-257 melanoma) of 1640 nM and a TGI (UACC-257 melanoma) of 3290 nM. For the same compound, the GI50 (CCRF-CEM leukemia) was 3930 nM, the TGI (CCRF-CEM leukemia) was greater than 100000 nM and the GI50 (SK-MEL-5 melanoma) was 2000 nM. It also gave a TGI (SK-MEL-5 melanoma) of 4040 nM, a GI50 (IGROV1 ovarian) of 1740 nM and a TGI (IGROV1 ovarian) of 3460 nM. It also gave a GI50 (KM12 colon) of 2150 nM, a TGI (KM12 colon) of 5180 nM and a GI50 (MDA-MB-231 breast) of 1850 nM. The TGI (MDA-MB-231 breast) was 3970 nM, the GI50 (SK-MEL-2 melanoma) was 1850 nM and the TGI (SK-MEL-2 melanoma) was 3620 nM. It also gave a GI50 (OVCAR-8 ovarian) of 1760 nM, a TGI (OVCAR-8 ovarian) of 3290 nM and a GI50 (A549 NSCLC) of 1760 nM. For the same compound, the TGI (A549 NSCLC) was 3530 nM, the GI50 (TK-10 renal) was 2860 nM and the TGI (TK-10 renal) was 7070 nM. For the same compound, the GI50 (SF-295 CNS) was 1940 nM, the TGI (SF-295 CNS) was 3600 nM and the GI50 (NCI-H522 lung) was 1730 nM. For the same compound, the TGI (NCI-H522 lung) was 3720 nM, the GI50 (K-562 leukemia) was 2430 nM and the TGI (K-562 leukemia) was 6220 nM. It also gave a GI50 (HL-60(TB) leukemia) of 4870 nM, a TGI (HL-60(TB) leukemia) greater than 100000 nM and a GI50 (OVCAR-5 ovarian) of 1910 nM. It also gave a TGI (OVCAR-5 ovarian) of 3780 nM, a GI50 (SK-OV-3 ovarian) of 1640 nM and a TGI (SK-OV-3 ovarian) of 3240 nM. The GI50 (OVCAR-4 ovarian) was 1740 nM, the TGI (OVCAR-4 ovarian) was 3370 nM and the GI50 (NCI/ADR-RES ovarian) was 1840 nM. For the same compound, the TGI (NCI/ADR-RES ovarian) was 3790 nM, the GI50 (EKVX NSCLC) was 2120 nM and the TGI (EKVX NSCLC) was 4940 nM. The GI50 (U251 CNS) was 1690 nM, the TGI (U251 CNS) was 3140 nM and the GI50 (A498 renal) was 1910 nM. The TGI (A498 renal) was 3550 nM, the GI50 (SF-539 CNS) was 1710 nM and the TGI (SF-539 CNS) was 3180 nM. The GI50 (NCI-H460 lung) was 1860 nM, the TGI (NCI-H460 lung) was 3510 nM and the GI50 (HOP-62 NSCLC) was 1610 nM. It also gave a TGI (HOP-62 NSCLC) of 3160 nM, a GI50 (CAKI-1 renal) of 1500 nM and a TGI (CAKI-1 renal) of 2850 nM. The GI50 (OVCAR-3 ovarian) was 1730 nM, the TGI (OVCAR-3 ovarian) was 3200 nM and the GI50 (SK-MEL-28 melanoma) was 1780 nM. It also gave a TGI (SK-MEL-28 melanoma) of 3250 nM, a GI50 (MOLT-4 leukemia) of 4440 nM and a TGI (MOLT-4 leukemia) greater than 100000 nM. It also gave a GI50 (SR leukemia) of 3030 nM, a TGI (SR leukemia) greater than 100000 nM and a GI50 (HT29 colon) of 1830 nM. For the same compound, the TGI (HT29 colon) was 3500 nM, the GI50 (MDA-MB-435) was 1740 nM and the TGI (MDA-MB-435) was 3400 nM. For the same compound, the GI50 (SN12C renal) was 1950 nM, the TGI (SN12C renal) was 3760 nM and the GI50 (UACC-62 melanoma) was 1700 nM. The TGI (UACC-62 melanoma) was 3390 nM, the GI50 (T-47D breast) was 1710 nM and the TGI (T-47D breast) was 3560 nM. The GI50 (MCF7 breast) was 1830 nM, the TGI (MCF7 breast) was 3620 nM and the GI50 (SNB-19 CNS) was 2000 nM. The TGI (SNB-19 CNS) was 4210 nM, the GI50 (HCT-15 colon) was 1920 nM and the TGI (HCT-15 colon) was 3880 nM. For the same compound, the GI50 (UO-31 renal) was 1260 nM, the TGI (UO-31 renal) was 2530 nM and the GI50 (PC-3 prostate) was 1680 nM. The TGI (PC-3 prostate) was 3340 nM, the GI50 (HS 578T breast) was 2120 nM and the TGI (HS 578T breast) was 5530 nM. It also gave a GI50 (MALME-3M melanoma) of 1760 nM, a TGI (MALME-3M melanoma) of 3370 nM and a GI50 (786-0 renal) of 1800 nM. For the same compound, the TGI (786-0 renal) was 3280 nM, the GI50 (RPMI-8226 leukemia) was 2310 nM and the TGI (RPMI-8226 leukemia) was 6540 nM. The GI50 (LOX IMVI melanoma) was 1780 nM, the TGI (LOX IMVI melanoma) was 3330 nM and the GI50 (M14 melanoma) was 1810 nM. For the same compound, the TGI (M14 melanoma) was 3500 nM, the GI50 (HCC-2998 colon) was 1920 nM and the TGI (HCC-2998 colon) was 3560 nM. The GI50 (HCT-116 colon) was 1830 nM, the TGI (HCT-116 colon) was 3350 nM and the GI50 (ACHN renal) was 1780 nM. For the same compound, the TGI (ACHN renal) was 3200 nM, the GI50 (DU-145 prostate) was 1860 nM and the TGI (DU-145 prostate) was 3500 nM. The GI50 (HOP-92 NSCLC) was 1160 nM and the TGI (HOP-92 NSCLC) was 2770 nM.
